This passage reports IC50 results from US12685726B2, “Sulfoximines as inhibitors of NaV1.8” (Gruenenthal GmbH, priority 2022, dated 2026).

pIC50: −log10 of the molar value.

The experiment has as its target T1, human NaV 1.8 (Homo sapiens, UniProt Q9Y5Y9).
T1 construct: expressed in transfected cells; host or cells: HEK (recombinant cell line)
In words: Automated whole-cell patch clamp (Qube384) voltage-clamp recordings of sodium currents in HEK-NaV1.8 cell line. The class given is cell-based. The conditions noted are these: read-out: Potency category (human NaV 1.8 IC50). Put shortly:
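HEK cells expressing NaV1.8 with b3, whole-cell automated voltage clamp at room temperature or 19° C.; CsF-based internal, pH 7.4 external. State-dependent (−120 mV, V1/2 4 s, −10 mV test pulses) and 10/20 Hz 40-pulse protocols; ~12 min compound, vehicle-corrected, IC50 by 4-parameter logistic fit.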
On the technique in general: The patch-clamp technique gives a direct electrical read-out from membranes.

T1 sequence (Q9Y5Y9 whole entry): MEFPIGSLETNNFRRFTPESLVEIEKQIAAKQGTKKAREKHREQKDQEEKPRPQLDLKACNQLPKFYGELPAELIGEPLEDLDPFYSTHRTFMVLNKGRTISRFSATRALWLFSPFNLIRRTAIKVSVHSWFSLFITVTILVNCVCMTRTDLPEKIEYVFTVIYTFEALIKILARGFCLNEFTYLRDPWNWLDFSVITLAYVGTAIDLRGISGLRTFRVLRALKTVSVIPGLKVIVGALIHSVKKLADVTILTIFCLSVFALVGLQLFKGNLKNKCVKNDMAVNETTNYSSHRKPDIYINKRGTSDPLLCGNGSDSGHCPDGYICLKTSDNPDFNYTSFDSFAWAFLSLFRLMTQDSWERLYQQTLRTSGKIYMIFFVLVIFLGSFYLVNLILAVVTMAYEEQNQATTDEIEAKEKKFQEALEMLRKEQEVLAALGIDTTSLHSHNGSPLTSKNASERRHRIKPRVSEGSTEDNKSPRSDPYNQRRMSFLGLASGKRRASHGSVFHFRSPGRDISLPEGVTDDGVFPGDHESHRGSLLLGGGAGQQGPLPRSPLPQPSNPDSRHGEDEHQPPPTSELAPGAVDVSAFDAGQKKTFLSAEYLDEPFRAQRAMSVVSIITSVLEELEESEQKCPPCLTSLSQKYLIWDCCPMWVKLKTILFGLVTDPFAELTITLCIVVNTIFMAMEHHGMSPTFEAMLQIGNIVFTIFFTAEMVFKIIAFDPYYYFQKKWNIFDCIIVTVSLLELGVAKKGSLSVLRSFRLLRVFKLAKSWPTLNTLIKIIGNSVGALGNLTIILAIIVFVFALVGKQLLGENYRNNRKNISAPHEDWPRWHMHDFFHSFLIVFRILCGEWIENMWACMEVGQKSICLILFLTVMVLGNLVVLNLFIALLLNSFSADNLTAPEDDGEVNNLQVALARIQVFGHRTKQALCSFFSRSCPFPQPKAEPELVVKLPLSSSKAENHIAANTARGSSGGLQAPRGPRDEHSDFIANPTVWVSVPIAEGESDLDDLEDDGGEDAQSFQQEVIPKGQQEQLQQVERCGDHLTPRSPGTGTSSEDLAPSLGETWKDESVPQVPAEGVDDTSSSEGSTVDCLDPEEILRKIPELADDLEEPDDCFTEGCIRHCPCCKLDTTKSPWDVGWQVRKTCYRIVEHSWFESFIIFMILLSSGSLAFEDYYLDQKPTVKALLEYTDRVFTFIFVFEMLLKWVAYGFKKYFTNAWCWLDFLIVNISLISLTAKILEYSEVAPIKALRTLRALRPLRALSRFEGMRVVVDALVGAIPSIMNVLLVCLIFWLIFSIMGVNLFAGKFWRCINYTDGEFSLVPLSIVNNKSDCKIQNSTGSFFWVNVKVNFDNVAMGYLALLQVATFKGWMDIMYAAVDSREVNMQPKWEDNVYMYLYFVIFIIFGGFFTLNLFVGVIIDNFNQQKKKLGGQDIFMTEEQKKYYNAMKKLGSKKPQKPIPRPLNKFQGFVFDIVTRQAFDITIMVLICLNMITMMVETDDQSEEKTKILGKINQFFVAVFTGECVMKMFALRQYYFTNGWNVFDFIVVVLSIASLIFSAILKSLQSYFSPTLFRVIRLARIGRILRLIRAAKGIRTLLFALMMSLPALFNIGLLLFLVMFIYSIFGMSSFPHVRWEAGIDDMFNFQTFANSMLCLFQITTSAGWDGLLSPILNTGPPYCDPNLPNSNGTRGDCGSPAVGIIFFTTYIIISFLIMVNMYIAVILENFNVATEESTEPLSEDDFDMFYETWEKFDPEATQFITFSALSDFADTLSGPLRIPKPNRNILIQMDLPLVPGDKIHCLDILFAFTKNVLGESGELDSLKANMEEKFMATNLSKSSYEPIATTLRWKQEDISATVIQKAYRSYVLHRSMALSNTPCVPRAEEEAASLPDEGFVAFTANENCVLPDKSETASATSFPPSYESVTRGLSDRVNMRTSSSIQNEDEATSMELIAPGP

For orientation: pIC50 means −log10 of the IC50, conventionally taken in molar units. Regarding `CS(=N)(=O)c1cc(NC(=O)c2c(C(F)(F)F)c(C3CC3)nn2CC2(C(F)(F)F)CCCC2)ccn1` (single isomer, unassigned) [Example 98b, 3-cyclopropyl-N-(2-(S-methylsulfonimidoyl)pyridin-4-yl)-4-(trifluoromethyl)-1-((1-(trifluoromethyl)cyclopentyl)methyl)-1H-pyrazole-5-carboxamide], the pIC50 is not below 7.00.

For `CC1(Cn2nc(C3(F)CC3)c(C(F)(F)F)c2C(=O)Nc2cc(F)cc(S(C)(=N)=O)c2)CC(F)(F)C1` (single isomer, unassigned) [Example 127a, 1-((3,3-Difluoro-1-methylcyclobutyl)methyl)-N-(3-fluoro-5-(S-methylsulfonimidoyl)phenyl)-3-(1-fluorocyclopropyl)-4-(trifluoromethyl)-1H-pyrazole-5-carboxamide], the pIC50 is not below 7.00.

As to `CC1(Cn2nc(C3CC(F)(F)C3)c(C(F)(F)F)c2C(=O)Nc2ccnc(S(C)(=N)=O)c2)CC(F)(F)C1` (single isomer, unassigned) [Example 57a, 1-((3,3-Difluoro-1-methylcyclobutyl)methyl)-3-(3,3-difluorocyclobutyl)-N-(2-(S-methylsulfonimidoyl)pyridin-4-yl)-4-(trifluoromethyl)-1H-pyrazole-5-carboxamide], the pIC50 was not below 7.00.

Turning to `Cc1cc(NC(=O)c2c(C(F)(F)F)c(C3CC3)nn2CC2(C)CC(F)(F)C2)cc(S(C)(=N)=O)n1` (single isomer, unassigned) [Example 50b, 3-cyclopropyl-1-((3,3-difluoro-1-methylcyclobutyl)methyl)-N-(2-methyl-6-(S-methylsulfonimidoyl)pyridin-4-yl)-4-(trifluoromethyl)-1H-pyrazole-5-carboxamide], the pIC50 was not below 7.00.

Regarding `CC1(Cn2nc(C3CC3(F)F)c(C(F)(F)F)c2C(=O)Nc2ccnc(S(C)(=N)=O)c2)CC(F)(F)C1` (single isomer, unassigned) [Example 63b, 1-((3,3-Difluoro-1-methylcyclobutyl)methyl)-3-(2,2-difluorocyclopropyl)-N-(2-(S-methylsulfonimidoyl)pyridin-4-yl)-4-(trifluoromethyl)-1H-pyrazole-5-carboxamide], the pIC50 was not below 7.00.

For the compound `C[S@@](=N)(=O)c1cc(NC(=O)c2c(C(F)(F)F)c(C3CC3)nn2C[C@@H]2C(F)(F)C23CC3)ccn1` (single isomer, unassigned) [Example 79c, 3-cyclopropyl-1-((2,2-difluorospiro[2.2]pentan-1-yl)methyl)-N-(2-(S-methylsulfonimidoyl)pyridin-4-yl)-4-(trifluoromethyl)-1H-pyrazole-5-carboxamide], the pIC50 was not below 7.00.
